The NIST ThermoML archive (doi:10.1016/j.jct.2017.03.021)
Values joined by “and” are separate entries in the source; they are usually repeats but may differ in a detail not shown here. Equal entries are not always repeated.

Columns and labels:
[1] = Crystal; for vapor or sublimation pressure: Calculated from knudsen effusion weight loss
[2] = Molar enthalpy of transition or fusion; details: Crystal; DSC

O=Cc1ccc2c(c1)Cc1ccccc1-2 [9H-fluorene-2-carbaldehyde]
[1]
Details | Normal melting temperature [°C] | vapor or sublimation pressure
335.16 K | – | 0.000121 kPa and 0.00012 kPa
337.16 K | – | 0.000147 kPa and 0.000149 kPa and 0.000144 kPa
339.09 K | – | 0.000186 kPa and 0.000185 kPa
341.11 K | – | 0.000231 kPa and 0.000233 kPa
341.16 K | – | 0.000227 kPa
343.08 K | – | 0.000288 kPa and 0.000289 kPa
343.14 K | – | 0.000288 kPa
345.09 K | – | 0.00036 kPa and 0.000361 kPa and 0.000364 kPa
347.16 K | – | 0.000444 kPa and 0.000463 kPa
349.11 K | – | 0.000553 kPa and 0.00054 kPa and 0.000557 kPa
351.09 K | – | 0.000685 kPa and 0.000687 kPa and 0.000681 kPa
353.1 K | – | 0.000861 kPa and 0.000847 kPa and 0.000859 kPa
355.09 K | – | 0.001048 kPa and 0.001057 kPa and 0.001075 kPa
DTA | 84.5 | –

Details | Molar enthalpy of transition or fusion [kcal/mol]
[2] | 5.26
